Measured values published in US7718613B2, “Armed peptides” (priority 2001, dated 2010).
The star is where a group is joined. Myristoyl = CCCCCCCCCCCCCC(=O)*

Columns and labels:
[1] = Cytolytic activity of pH-responsive peptides on calcein liposomes at different pH; details: liposomes 4 μM lipid; 14 nM peptide 2, 20 nM peptide 7, 45 nM peptide 9; FIG. 4
Method: Liposomes encapsulating calcein dye were prepared by an extrusion method (Biochim. Biophys. Acta, 812 (1985) 55). Phophatidylcholine (50 mg) and cholesterol (13.08 mg) which had been dissolved in 4 ml of 50% v/v chloroform methanol solution were evaporated to form a lipid film in a round bottom flask. If it is essential to follow the fate of liposomes a lipohilic-dye such as DiI (50 μg) could be incorporated into the lipid film prior to hydration. The film was then hydrated with 4 ml of 120 mM calcein solution prepared in 10 mM sodium phosphate 20 mM Sodium chloride buffer pH 7.4. Liposomes were formed by 10 extrusion cycles through 0.2 micron or 0.1 um polycarbonate filters using the Liposofast 100 (Avestin) extruder device. The non encapsulated dye was removed by gel filtration on a PD-10 column using iso-osmotic buffer. The total lipid concentration of the liposomes was measured by the Stewart assay and adjusted to 3 mg per ml.
The cytolytic activity of pH-responsive peptides was followed by adding 2 or 3 μl of liposomes to a 2 ml assay volume and continually recording fluorescence. Buffers were made of 10 mM Na phosphate, 140 mM NaCl, 1 mM EDTA, 5 mM HEPES at several different pH values. […] In the experiments 2 ml of 10 mM Na phosphate, 140 mM NaCl, 1 mM EDTA, 5 mM HEPES buffer (at pH values indicated on the figure) containing liposomes (4 μM lipid) and (A) 14 nM peptide 2, (B) 20 nM peptide 7 (C) 45 nM peptide 9. In all cases peptides were added indicated by sharp dip in fluorescence were used. The pH values are as indicated for each trace. […] In general, it is well documented that many proteins including receptors, enzymes and antibodies has pH optimum usually closer to physiological value. On either side of the pH optimum the binding activity is reduced. However in general as activity profile is typically bell shape most proteins would tolerate at least a pH unit shift from optimum. Obviously the closer the results are to pH 7.4 the higher chances their are for efficient binding with target proteins or receptors.

[2] = Liposome-peptide integral complex: pH-triggered calcein release and stability
Text: A fatty acid incorporated on the N-terminal of peptide anchors the sequence with liposomes to form integral complex which can then be used as single stable reagent that can be triggered to release the contents-of the liposomoes when the pH is ideal (i.e physiological 7.4) or acidic (e.g 6.2). In the first instance we prepared the liposome-peptide complex at a predetermined ratio of lipid-to peptide (30:1) in pH 8 buffer using peptide 10. […] The complex between liposomes and peptide was formed by adding peptide to […] of 10 mM NaP containing 140 mM NaCl, 1 mM EDTA, 5 mM Hepes pH 8 buffer, containing 100 μl of calcein encapsulating liposomes. The mixture was incubated for 20 mins to form the complex prior to use. In order to ascertain that the lysis is occurring due to the formation of complex and not as the action of the peptide per se it was essential to purify the liposome-peptide complex. The peptide to lipid ratio in this complex is 1:30. The complex was applied to a Sepharose CL-6B column. Fractions corresponding to liposomes were collected as clearly visible to the eye. Aliquots of these fractions were then tested for lytic activity at acidic and physiological pH values. The key aim was to establish that the peptide is liposome associated and would thus be eluted with liposome fraction in the void volume. We used 100 μl complex (a column purified fraction) and followed the release of Calcein at two different pH values.
FIG. 8A. […] Upper curve pH 5.8. Lower curve pH 7.4.
2 ml buffer (10 mM Na phosphate, 140 mM NaCl, 1 mM EDTA, 5 mM HEPES)+50 μl purified complex. Lipsomes used were 50 nm extruded. Curves top to bottom are pH 6.2, 6.4, 6.7, 7.0, 7.4
Complex 20 μl liposomes+60 μl pH 8 buffer+20 μl peptide (0.1 mg/ml) prepared and used within 2 minutes. 10 μl was added to each of the cuvettes containing 2 ml buffers. Top curve pH 6.2 (triton was added towards the end indicated by sharp dip in fluorescence to check full lysis), the lower curve is at pH 7.4. Samples measured simultaneously.
5 μL of complex in 2 ml of buffer tested 20 minutes after preparation. Upper curve pH 6.2, Lower curve pH 7.4.
5 μL of complex in 2 ml of buffer tested 5 hrs after preparation. Upper curve pH 6.2 and lower curve pH 7.4.
5 μL of complex in 2 ml of buffer tested 24 hrs after preparation curve pH 6.2, Lower curve pH 7.4.

KHT tumour = assay: Ex vivo release of calcein in tumour slices after i.v. peptide liposome complex; design: species or system C3H mice; details: 200 μl complex i.v., tumours excised 3 hrs post inoculum, buffer pH 8 changed to pH 5.8; FIG. 11
Method: Liposomes encapsulating Calcein (120 mM) and with label DiI (the dye to lipid ratio was around 100 μg dye: 100 mg PC) were used. C3H syngenic mice 8-10 weeks old weighing 20-25 g were used. Subcutaneous tumour was implanted using KHT cells (5×10^6 cells/animal) on the dorsal side after shaving the mice. Typically 200 μl of peptide liposome complex (100 μl of dual dye liposomes+100 μl of peptide 0.1 mg/ml) were administered intravenously per mice and tumours excised 3 hrs post inoculum. The tumour was removed aseptically and kept in PBS pH 8.0 buffer and thin sections (160 μm-200 μm) were cut on the slicing machine, and examined under a fluorescence microscope. The pH of the buffer was modulated by adding 400 μl of NaP buffer pH 5.8 while simultaneously removing 400 μl of pH 8 buffer. Changes in fluorescence intensity were recorded. The state of liposome peptide complex is then determined, whether intact or lysed by measuring fluorescence in tissue slices before-and after incubation in acidic buffer. The increase in fluorescence in the acidic buffer indicates the quantity of liposomes that were still intact and able to respond at the time of sacrifice.

Myr-WEAALAEALAEALAEHLARALAEALEALAA-Amide (Myristoyl-WEAALAEALAEALAEHLARALAEALEALAA-NH2; SMILES CCCCCCCCCCCCCC(=O)N[C@@H](Cc1c[nH]c2ccccc12)C(=O)N[C@@H](CCC(=O)O)C(=O)N[C@@H](C)C(=O)N[C@@H](C)C(=O)N[C@@H](CC(C)C)C(=O)N[C@@H](C)C(=O)N[C@@H](CCC(=O)O)C(=O)N[C@@H](C)C(=O)N[C@@H](CC(C)C)C(=O)N[C@@H](C)C(=O)N[C@@H](CCC(=O)O)C(=O)N[C@@H](C)C(=O)N[C@@H](CC(C)C)C(=O)N[C@@H](C)C(=O)N[C@@H](CCC(=O)O)C(=O)N[C@@H](Cc1c[nH]cn1)C(=O)N[C@@H](CC(C)C)C(=O)N[C@@H](C)C(=O)N[C@@H](CCCNC(=N)N)C(=O)N[C@@H](C)C(=O)N[C@@H](CC(C)C)C(=O)N[C@@H](C)C(=O)N[C@@H](CCC(=O)O)C(=O)N[C@@H](C)C(=O)N[C@@H](CC(C)C)C(=O)N[C@@H](CCC(=O)O)C(=O)N[C@@H](C)C(=O)N[C@@H](CC(C)C)C(=O)N[C@@H](C)C(=O)N[C@@H](C)C(N)=O) [peptide 9]
pH of triggering (pH profile of calcein release from liposomes) [1]: ~7 pH | stability of the complex ([2]; calcein/DiI liposomes, tested 20 minutes, 5 hrs and 24 hrs after preparation, pH 6.2 vs 7.4, FIGS. 8D, E, F): retention of the pH triggering of properties | triggering properties of complex after purification ([2]; peptide to lipid ratio 1:300, pH 6.2 to 7.4, FIG. 8B): triggering properties are retained | release of calcein in tumour slices on acidification (KHT tumour): able to trigger release of calcein
